# Assay results taken from patent publication US12643922B2 (VIRGINIA COMMONWEALTH UNIVERSITY, priority 2021, dated 2026).
# Like-named read-outs stand apart in the source and are kept apart here.
# Tests used:
# [1] = colour and water solubility with time
# UA sulfation = assay: Inhibition of UA sulfation (formation of UA-sulfate by HPLC-MS); format: biochemical; settings: UA concentration 2 μM, triplicate
# Protocol: FIG. 5. IC50 of glycyrrhetinic acid. UA concentration was 2 μM. Determination was done in triplicate.
# Table 1. IC50 values for several inhibitors of UA sulfation. UA concentration was 2 μM. Determinations were done in triplicate, and formation of UA-sulfate was determined by HPLC-MS followed by nonlinear regression with the Hill equation.
# [2] = cited from earlier work
# [3] = background statement; cited from earlier work
# [4] = cited from earlier work; remark: listed apart in the source
# [5] = Solubility of ursolic acid salts in hydrophilic solvents (clear saturated solution)
# Protocol: The salts were weighed, mixed with the solvent, and incubated to reach clear saturated solution (37° C. for water and ethanol; 55° C. for PEG 400 and glycerol).
SMILES,Hill slope (UA sulfation; Hill equation),"IC50 (UA sulfation; Hill equation, read-out: IC50)",other results
"C[C@H]1[C@H](C)CC[C@]2(C(=O)O)CC[C@]3(C)C(=CC[C@@H]4[C@@]5(C)CC[C@H](O)C(C)(C)[C@@H]5CC[C@]43C)[C@H]12 [UAdC-W, ursolic acid dicholine hydroxide hydrated complex]",–,–,stability [1]: stable
"C[C@]12CC[C@H](O)CC1=CC[C@@H]1[C@@H]2CC[C@]2(C)C(=O)CC[C@@H]12 [DHEA, dehydroepiandrosterone]",1.4 ± 0.1,1.2 ± 0.1 µM,–
C[C@H]1CC[C@]2(NC1)O[C@H]1C[C@H]3[C@@H]4CC[C@H]5C[C@@H](O)CC[C@]5(C)[C@H]4CC[C@]3(C)[C@H]1[C@@H]2C [Tomatidine],0.5 ± 0.03,84.8 ± 5.1 µM,–
CC1(C)[C@@H](O)CC[C@]2(C)[C@H]3C(=O)C=C4[C@@H]5C[C@@](C)(C(=O)O)CC[C@]5(C)CC[C@@]4(C)[C@]3(C)CC[C@@H]12 [Glycyrrhetinic acid],4.8 ± 3.5,14 ± 0.2 µM,"IC50 (UA sulfation; 95% CI, read-out: IC50 (FIG. 5)): 18.6 µM"
C[C@]12CC[C@H](O)CC1=CC(=O)C1C2CC[C@]2(C)C(=O)CCC12 (some centres unmarked) [7-oxo-DHEA],1.2 ± 0.4,38.1 ± 1.2 µM,–
"C[C@H]1[C@H](C)CC[C@]2(C(=O)O)CC[C@]3(C)C(=CC[C@@H]4[C@@]5(C)CC[C@H](O)C(C)(C)[C@@H]5CC[C@]43C)[C@H]12 [UAdC-O, ursolic acid dicholine complex]",–,–,stability [1]: unstable
C=C1C[C@@]23CC[C@H]4[C@@](C)(CCC[C@@]4(C)C(=O)O)[C@@H]2CC[C@]1(O)C3 [Steviol],1.4 ± 0.1,11.8 ± 1.8 µM,–
C[C@@H]1CC[C@]2(C(=O)O)CC[C@]3(C)C(=CCC4[C@@]5(C)CC[C@H](O)C(C)(C)C5CC[C@]43C)C2[C@H]1C (some centres unmarked) [Ursolic acid],–,–,oral bioavailability [2]: less than 1%; solubility in water [3]: less than 1 μg/mL; pKa of carboxylic acid [4]: 4.7
CC(=O)O[C@H]1CC[C@@]2(C)C(=CC(=O)[C@@H]3[C@@H]2CC[C@]2(C)C(=O)CC[C@@H]32)C1 [7-oxo-DHEA acetate],1.2 ± 0.06,20.2 ± 3.6 µM,–
"C[C@H]1[C@H](C)CC[C@]2(C(=O)[O-])CC[C@]3(C)C(=CC[C@@H]4[C@@]5(C)CC[C@H](O)C(C)(C)[C@@H]5CC[C@]43C)[C@H]12.C[N+](C)(C)CCO [UAmC, monocholine ursolate]",–,–,"PEG400 solubility compared to UAK ([5]; PEG400, data not shown): lower solubility; ethanol solubility, comparison ([5]; ethanol, FIG. 1B): less than UAK"
